Laboratory results from ChEMBL document CHEMBL4507318, “Data for DCP probe BAY-985” (2021).

Columns and labels:
[1] = tested on: Tyrosine-protein kinase ABL1 (Homo sapiens), P00519 [H396P]
[2] = tested on: Tyrosine-protein kinase ABL1 (Homo sapiens), P00519 [H396P]; remark: listed apart in the source
[3] = tested on: Tyrosine-protein kinase ABL1 (Homo sapiens), P00519 [M351T]
[4] = target: 5'-AMP-activated protein kinase catalytic subunit alpha-1 (Homo sapiens) (UniProt Q13131)
[5] = target: Mitogen-activated protein kinase kinase kinase 5 (Homo sapiens) (UniProt Q99683)
[6] = target: Mitogen-activated protein kinase kinase kinase 6 (Homo sapiens) (UniProt O95382)
[7] = target: Aurora kinase B (Homo sapiens) (UniProt Q96GD4)
Chain of Aurora kinase B (Homo sapiens) (Q96GD4 whole entry): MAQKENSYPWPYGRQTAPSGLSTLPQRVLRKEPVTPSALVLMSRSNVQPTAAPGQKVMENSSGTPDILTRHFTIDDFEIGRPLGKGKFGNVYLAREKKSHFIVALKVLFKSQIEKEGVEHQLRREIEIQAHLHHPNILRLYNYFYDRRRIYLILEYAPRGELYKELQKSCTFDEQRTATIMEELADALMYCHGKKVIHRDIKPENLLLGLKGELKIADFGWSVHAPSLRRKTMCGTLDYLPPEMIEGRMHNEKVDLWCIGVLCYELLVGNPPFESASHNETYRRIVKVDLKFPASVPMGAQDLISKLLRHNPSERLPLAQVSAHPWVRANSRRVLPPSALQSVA

[8] = target: Calcium/calmodulin-dependent protein kinase kinase 1 (Homo sapiens) (UniProt Q8N5S9)
[9] = target: Cyclin-dependent kinase 11A (Homo sapiens) (UniProt Q9UQ88)
[10] = target: Cyclin-dependent kinase 4 (Homo sapiens) (UniProt P11802)
[11] = target: Cyclin-dependent kinase 5 (Homo sapiens) (UniProt Q00535)
[12] = target: Cyclin-dependent kinase-like 5 (Homo sapiens) (UniProt O76039)
[13] = target: Dual specificity protein kinase CLK4 (Homo sapiens) (UniProt Q9HAZ1)
[14] = tested on: Epidermal growth factor receptor (Homo sapiens), P00533 [UNDEFINED MUTATION]
Chain of Epidermal growth factor receptor (Homo sapiens), P00533 [UNDEFINED MUTATION] (P00533 whole entry, looked up, change not shown): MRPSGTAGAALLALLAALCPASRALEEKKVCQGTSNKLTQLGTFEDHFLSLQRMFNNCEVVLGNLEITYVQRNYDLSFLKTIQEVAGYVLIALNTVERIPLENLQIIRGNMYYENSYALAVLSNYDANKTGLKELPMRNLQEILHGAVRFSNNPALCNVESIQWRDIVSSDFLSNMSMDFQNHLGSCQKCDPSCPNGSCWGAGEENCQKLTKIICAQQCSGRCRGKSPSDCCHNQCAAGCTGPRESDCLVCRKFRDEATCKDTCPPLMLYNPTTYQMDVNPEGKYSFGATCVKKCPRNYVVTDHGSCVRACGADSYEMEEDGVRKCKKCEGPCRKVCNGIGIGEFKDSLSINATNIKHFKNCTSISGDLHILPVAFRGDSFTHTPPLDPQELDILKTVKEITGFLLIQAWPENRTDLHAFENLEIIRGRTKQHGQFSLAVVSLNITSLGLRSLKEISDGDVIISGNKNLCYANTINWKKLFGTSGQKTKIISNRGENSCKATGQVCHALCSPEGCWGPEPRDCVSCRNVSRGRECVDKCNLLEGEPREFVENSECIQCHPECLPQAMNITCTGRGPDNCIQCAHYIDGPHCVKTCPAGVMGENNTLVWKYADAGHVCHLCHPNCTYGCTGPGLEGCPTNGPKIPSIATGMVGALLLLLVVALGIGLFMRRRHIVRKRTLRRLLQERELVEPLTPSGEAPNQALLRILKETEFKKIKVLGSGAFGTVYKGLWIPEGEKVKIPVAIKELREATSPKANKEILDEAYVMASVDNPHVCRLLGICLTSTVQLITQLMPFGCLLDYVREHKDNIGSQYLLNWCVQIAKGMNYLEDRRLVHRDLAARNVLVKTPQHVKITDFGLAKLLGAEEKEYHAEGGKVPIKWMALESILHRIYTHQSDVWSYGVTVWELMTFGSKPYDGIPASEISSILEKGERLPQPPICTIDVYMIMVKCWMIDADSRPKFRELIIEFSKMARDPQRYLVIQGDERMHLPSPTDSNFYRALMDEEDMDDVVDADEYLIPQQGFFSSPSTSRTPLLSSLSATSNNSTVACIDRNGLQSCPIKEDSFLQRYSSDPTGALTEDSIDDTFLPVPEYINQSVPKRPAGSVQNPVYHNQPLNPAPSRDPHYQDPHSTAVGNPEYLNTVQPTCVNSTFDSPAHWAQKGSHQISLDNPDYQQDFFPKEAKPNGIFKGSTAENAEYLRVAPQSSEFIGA

[15] = tested on: Epidermal growth factor receptor (Homo sapiens), P00533 [UNDEFINED MUTATION]; remark: listed apart in the source
[16] = target: Tyrosine-protein kinase Fer (Homo sapiens) (UniProt P16591)
[17] = target: Fibroblast growth factor receptor 4 (Homo sapiens) (UniProt P22455)
[18] = target: Homeodomain-interacting protein kinase 3 (Homo sapiens) (UniProt Q9H422)
[19] = target: Hormonally up-regulated neu tumor-associated kinase (Homo sapiens) (UniProt P57058)
[20] = target: Interleukin-1 receptor-associated kinase 4 (Homo sapiens) (UniProt Q9NWZ3)
[21] = target: Mast/stem cell growth factor receptor Kit (Homo sapiens) (UniProt P10721)
[22] = target: Tyrosine-protein kinase Lyn (Homo sapiens) (UniProt P07948)
[23] = target: Mitogen-activated protein kinase kinase kinase 13 (Homo sapiens) (UniProt O43283)
Chain of Mitogen-activated protein kinase kinase kinase 13 (Homo sapiens) (O43283 whole entry): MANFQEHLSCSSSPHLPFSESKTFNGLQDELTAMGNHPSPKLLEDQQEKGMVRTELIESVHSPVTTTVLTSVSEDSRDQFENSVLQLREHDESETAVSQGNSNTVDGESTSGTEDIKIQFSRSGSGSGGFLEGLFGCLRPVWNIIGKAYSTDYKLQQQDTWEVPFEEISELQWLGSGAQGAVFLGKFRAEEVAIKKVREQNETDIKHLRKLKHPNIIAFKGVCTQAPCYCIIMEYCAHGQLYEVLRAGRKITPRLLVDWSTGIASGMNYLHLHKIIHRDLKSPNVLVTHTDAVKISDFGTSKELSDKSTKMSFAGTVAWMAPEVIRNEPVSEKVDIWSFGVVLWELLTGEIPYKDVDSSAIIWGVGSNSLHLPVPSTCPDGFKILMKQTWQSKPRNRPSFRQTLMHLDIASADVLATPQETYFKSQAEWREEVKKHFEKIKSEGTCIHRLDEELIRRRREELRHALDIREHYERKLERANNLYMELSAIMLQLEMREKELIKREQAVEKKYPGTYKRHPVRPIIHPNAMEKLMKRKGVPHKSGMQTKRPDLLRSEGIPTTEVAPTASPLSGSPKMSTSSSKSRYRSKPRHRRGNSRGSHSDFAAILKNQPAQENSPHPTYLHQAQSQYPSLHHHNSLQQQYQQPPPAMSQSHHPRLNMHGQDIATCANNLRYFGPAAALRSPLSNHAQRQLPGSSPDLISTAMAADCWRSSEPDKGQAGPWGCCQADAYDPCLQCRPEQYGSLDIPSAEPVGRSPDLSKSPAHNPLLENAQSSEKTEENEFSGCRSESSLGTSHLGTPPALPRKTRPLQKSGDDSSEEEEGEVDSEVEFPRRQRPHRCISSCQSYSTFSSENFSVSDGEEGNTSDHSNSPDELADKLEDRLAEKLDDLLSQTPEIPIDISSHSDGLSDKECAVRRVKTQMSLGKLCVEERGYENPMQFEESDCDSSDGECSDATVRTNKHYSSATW

[24] = target: Mitogen-activated protein kinase kinase kinase kinase 3 (Homo sapiens) (UniProt Q8IVH8)
[25] = target: Microtubule-associated serine/threonine-protein kinase 1 (Homo sapiens) (UniProt Q9Y2H9)
[26] = target: MAP kinase-interacting serine/threonine-protein kinase 2 (Homo sapiens) (UniProt Q9HBH9)
[27] = target: Serine/threonine-protein kinase mTOR (Homo sapiens) (UniProt P42345)
[28] = target: Myosin light chain kinase family member 4 (Homo sapiens) (UniProt Q86YV6)
[29] = target: Myosin-IIIa (Homo sapiens) (UniProt Q8NEV4)
[30] = target: Serine/threonine-protein kinase Nek3 (Homo sapiens) (UniProt P51956)
Chain of Serine/threonine-protein kinase Nek3 (Homo sapiens) (P51956 whole entry): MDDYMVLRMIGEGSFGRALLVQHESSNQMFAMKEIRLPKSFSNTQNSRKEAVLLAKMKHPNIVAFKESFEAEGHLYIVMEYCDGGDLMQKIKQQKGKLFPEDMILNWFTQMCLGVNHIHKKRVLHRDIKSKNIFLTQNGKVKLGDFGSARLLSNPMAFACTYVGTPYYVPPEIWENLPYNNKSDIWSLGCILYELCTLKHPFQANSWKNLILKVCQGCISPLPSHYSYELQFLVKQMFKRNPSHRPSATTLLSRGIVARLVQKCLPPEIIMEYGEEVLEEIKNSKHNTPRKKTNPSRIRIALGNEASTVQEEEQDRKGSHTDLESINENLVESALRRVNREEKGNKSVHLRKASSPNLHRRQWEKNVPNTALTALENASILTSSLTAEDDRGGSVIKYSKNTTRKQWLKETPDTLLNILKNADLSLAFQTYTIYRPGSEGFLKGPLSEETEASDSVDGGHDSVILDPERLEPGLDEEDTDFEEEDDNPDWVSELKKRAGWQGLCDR

[31] = target: Serine/threonine-protein kinase Nek5 (Homo sapiens) (UniProt Q6P3R8)
[32] = target: Serine/threonine-protein kinase NLK (Homo sapiens) (UniProt Q9UBE8)
[33] = target: Serine/threonine-protein kinase PAK 5 (Homo sapiens) (UniProt Q9P286)
[34] = target: Phosphatidylinositol 4,5-bisphosphate 3-kinase catalytic subunit alpha isoform (Homo sapiens) (UniProt P42336)
[35] = tested on: Phosphatidylinositol 4,5-bisphosphate 3-kinase catalytic subunit alpha isoform (Homo sapiens), P42336 [E542K]
[36] = tested on: Phosphatidylinositol 4,5-bisphosphate 3-kinase catalytic subunit alpha isoform (Homo sapiens), P42336 [Q546K]
[37] = target: cAMP-dependent protein kinase catalytic subunit beta (Homo sapiens) (UniProt P22694)
[38] = target: Protein kinase C iota type (Homo sapiens) (UniProt P41743)
Chain of Protein kinase C iota type (Homo sapiens) (P41743 whole entry): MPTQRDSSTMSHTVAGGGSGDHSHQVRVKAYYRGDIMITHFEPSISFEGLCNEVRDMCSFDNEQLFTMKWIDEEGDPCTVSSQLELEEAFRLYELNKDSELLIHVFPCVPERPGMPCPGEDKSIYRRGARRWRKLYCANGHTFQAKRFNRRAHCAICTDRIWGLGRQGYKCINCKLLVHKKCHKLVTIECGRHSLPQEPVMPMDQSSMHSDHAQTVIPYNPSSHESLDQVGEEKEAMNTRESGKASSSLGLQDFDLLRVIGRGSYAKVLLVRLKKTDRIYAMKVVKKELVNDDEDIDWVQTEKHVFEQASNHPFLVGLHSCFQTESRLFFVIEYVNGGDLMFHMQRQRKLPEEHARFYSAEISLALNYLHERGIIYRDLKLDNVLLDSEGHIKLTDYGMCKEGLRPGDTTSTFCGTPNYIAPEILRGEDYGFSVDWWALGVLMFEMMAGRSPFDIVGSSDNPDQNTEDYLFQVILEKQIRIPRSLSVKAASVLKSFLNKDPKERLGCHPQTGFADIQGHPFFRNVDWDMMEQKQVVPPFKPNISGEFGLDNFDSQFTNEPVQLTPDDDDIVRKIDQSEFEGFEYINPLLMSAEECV

[39] = tested on: Proto-oncogene tyrosine-protein kinase receptor Ret (Homo sapiens), P07949 [V804L]
[40] = target: Rho-associated protein kinase 1 (Homo sapiens) (UniProt Q13464)
Chain of Rho-associated protein kinase 1 (Homo sapiens) (Q13464 2-1354 limits assumed): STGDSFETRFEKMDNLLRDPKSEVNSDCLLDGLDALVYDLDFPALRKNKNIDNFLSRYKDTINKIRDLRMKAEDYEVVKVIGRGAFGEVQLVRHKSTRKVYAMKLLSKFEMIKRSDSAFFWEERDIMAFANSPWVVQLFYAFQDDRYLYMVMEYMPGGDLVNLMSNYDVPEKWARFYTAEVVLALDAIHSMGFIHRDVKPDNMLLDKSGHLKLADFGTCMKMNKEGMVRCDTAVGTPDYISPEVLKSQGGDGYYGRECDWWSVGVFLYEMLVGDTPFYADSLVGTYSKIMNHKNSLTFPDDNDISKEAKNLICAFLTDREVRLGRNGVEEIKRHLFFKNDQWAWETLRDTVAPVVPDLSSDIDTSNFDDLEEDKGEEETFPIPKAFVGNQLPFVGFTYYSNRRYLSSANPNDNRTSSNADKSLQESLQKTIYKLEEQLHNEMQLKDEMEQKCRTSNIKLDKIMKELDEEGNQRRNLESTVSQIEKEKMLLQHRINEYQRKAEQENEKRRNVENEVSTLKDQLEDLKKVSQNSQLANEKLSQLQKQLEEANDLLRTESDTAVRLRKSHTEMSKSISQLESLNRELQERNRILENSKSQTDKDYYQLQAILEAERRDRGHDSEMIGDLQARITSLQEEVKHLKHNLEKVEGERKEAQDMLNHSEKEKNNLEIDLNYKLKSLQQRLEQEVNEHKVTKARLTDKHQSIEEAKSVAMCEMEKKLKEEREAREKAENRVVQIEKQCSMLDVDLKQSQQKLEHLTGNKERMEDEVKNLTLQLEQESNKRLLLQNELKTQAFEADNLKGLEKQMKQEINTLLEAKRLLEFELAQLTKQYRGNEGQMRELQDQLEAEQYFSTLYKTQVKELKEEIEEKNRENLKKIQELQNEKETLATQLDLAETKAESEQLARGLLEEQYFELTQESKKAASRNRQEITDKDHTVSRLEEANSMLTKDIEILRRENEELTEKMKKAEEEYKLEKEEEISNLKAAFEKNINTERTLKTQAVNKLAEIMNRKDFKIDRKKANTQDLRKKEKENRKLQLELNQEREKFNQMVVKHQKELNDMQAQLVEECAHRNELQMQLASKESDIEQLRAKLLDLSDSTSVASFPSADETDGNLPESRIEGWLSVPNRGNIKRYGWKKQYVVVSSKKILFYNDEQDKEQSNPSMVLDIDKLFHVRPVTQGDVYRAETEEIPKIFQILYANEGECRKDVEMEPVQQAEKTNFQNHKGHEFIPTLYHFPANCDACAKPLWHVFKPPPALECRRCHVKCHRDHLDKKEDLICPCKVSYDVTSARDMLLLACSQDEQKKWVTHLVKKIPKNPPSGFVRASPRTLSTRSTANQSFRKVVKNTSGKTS

[41] = target: Ribosomal protein S6 kinase alpha-5 (Homo sapiens) (UniProt O75582)
[42] = target: TRAF2 and NCK-interacting protein kinase (Homo sapiens) (UniProt Q9UKE5)
[43] = target: NT-3 growth factor receptor (Homo sapiens) (UniProt Q16288)
[44] = target: Non-receptor tyrosine-protein kinase TYK2 (Homo sapiens) (UniProt P29597)
[45] = target: Kappa-type opioid receptor (Homo sapiens) (UniProt P41145); details: Compound concentration 10.0 uM
[46] = Compound concentration 1000.0 nM
[47] = Compound concentration 100.0 nM

## CN(C)c1ncnc(-c2ccc3nc(Nc4cc(CN5CCN(C(=O)CC(F)(F)F)CC5)ccn4)[nH]c3c2)c1Cl [BAY-440]
[1]; [46]
  residual activity: 4.2%
[2]; [46]
  residual activity: 44%
[3]; [46]
  residual activity: 43%
[4]; [46]
  residual activity: 100%
[5]; [46]
  residual activity: 100%
[6]; [46]
  residual activity: 87%
[7]; [46]
  residual activity: 85%
[8]; [46]
  residual activity: 100%
[9]; [46]
  residual activity: 100%
[10]; [46]
  residual activity: 83%
[11]; [46]
  residual activity: 100%
[12]; [46]
  residual activity: 66%
[13]; [46]
  residual activity: 99%
[14]; [46]
  residual activity: 100%
[15]; [46]
  residual activity: 88%
[16]; [46]
  residual activity: 100%
[17]; [46]
  residual activity: 92%
[18]; [46]
  residual activity: 100%
[19]; [46]
  residual activity: 80%
[20]; [46]
  residual activity: 39%
[21]; [46]
  residual activity: 96%
[22]; [46]
  residual activity: 94%
[23]; [46]
  residual activity: 86%
[24]; [46]
  residual activity: 74%
[25]; [46]
  residual activity: 86%
[26]; [46]
  residual activity: 37%
[27]; [46]
  residual activity: 100%
[28]; [46]
  residual activity: 100%
[29]; [46]
  residual activity: 100%
[30]; [46]
  residual activity: 69%
[31]; [46]
  residual activity: 100%
[32]; [46]
  residual activity: 88%
[33]; [46]
  residual activity: 85%
[34]; [46]
  residual activity: 100%
[35]; [46]
  residual activity: 29%
[36]; [46]
  residual activity: 30%
[37]; [46]
  residual activity: 76%
[38]; [46]
  residual activity: 79%
[39]; [46]
  residual activity: 100%
[40]; [46]
  residual activity: 100%
[41]; [46]
  residual activity: 85%
[42]; [46]
  residual activity: 53%
[43]; [46]
  residual activity: 61%
[44]; [46]
  residual activity: 51%
[45]
  inhibition: 33.7%

## C[C@H](c1ccnc(Nc2nc3ccc(-c4cc(N(C)C)ncn4)cc3[nH]2)c1)N1CCN(C(=O)CC(F)(F)F)CC1 [BAY-985]
[1]; [47]
  residual activity: 79%
[2]; [47]
  residual activity: 87%
[3]; [47]
  residual activity: 100%
[4]; [47]
  residual activity: 100%
[5]; [47]
  residual activity: 100%
[6]; [47]
  residual activity: 100%
[7]; [47]
  residual activity: 100%
[8]; [47]
  residual activity: 89%
[9]; [47]
  residual activity: 84%
[10]; [47]
  residual activity: 100%
[11]; [47]
  residual activity: 86%
[12]; [47]
  residual activity: 100%
[13]; [47]
  residual activity: 82%
[14]; [47]
  residual activity: 69%
[15]; [47]
  residual activity: 86%
[16]; [47]
  residual activity: 100%
[17]; [47]
  residual activity: 98%
[18]; [47]
  residual activity: 100%
[19]; [47]
  residual activity: 95%
[20]; [47]
  residual activity: 100%
[21]; [47]
  residual activity: 100%
[22]; [47]
  residual activity: 97%
[23]; [47]
  residual activity: 100%
[24]; [47]
  residual activity: 100%
[25]; [47]
  residual activity: 100%
[26]; [47]
  residual activity: 86%
[27]; [47]
  residual activity: 75%
[28]; [47]
  residual activity: 100%
[29]; [47]
  residual activity: 100%
[30]; [47]
  residual activity: 100%
[31]; [47]
  residual activity: 100%
[32]; [47]
  residual activity: 88%
[33]; [47]
  residual activity: 100%
[34]; [47]
  residual activity: 100%
[35]; [47]
  residual activity: 53%
[36]; [47]
  residual activity: 45%
[37]; [47]
  residual activity: 100%
[38]; [47]
  residual activity: 100%
[39]; [47]
  residual activity: 83%
[40]; [47]
  residual activity: 100%
[41]; [47]
  residual activity: 61%
[42]; [47]
  residual activity: 96%
[43]; [47]
  residual activity: 100%
[44]; [47]
  residual activity: 100%
[45]
  inhibition: 4.24%
